Where a name gives a salt, the structure may show the parent alone.
Legend:
[1] = tested on: HCT116; settings: 72 h
Description: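 HCT116 control and MTA1-KO (CRISPR) HCT116 cells were seeded in 384-well plates (800 cells/well), treated 16 h later with 237 metabolism-related anticancer drugs at five doses (10 uM, 2 uM, 400 nM, 80 nM, 16 nM) for 72 h, two replicates; viability by CCK8. Values are % inhibition of viability relative to untreated cells, plus fitted IC50.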

[2] = tested on: HCT116; test: viability inhibition vs untreated; higher = more cytotoxic; settings: 72 h

| Compound | IC50 ([1]; genotype: MTA1-KO) [µM] | IC50 ([1]; genotype: control) [µM] | viability inhibition ([2]; genotype: MTA1-KO, 16 nM) [%] | viability inhibition ([2]; genotype: MTA1-KO, 80 nM) [%] | viability inhibition ([2]; genotype: MTA1-KO, 400 nM) [%] | viability inhibition ([2]; genotype: MTA1-KO, 2000 nM) [%] | viability inhibition ([2]; genotype: MTA1-KO, 10000 nM) [%] | viability inhibition ([2]; genotype: control, 16 nM) [%] | viability inhibition ([2]; genotype: control, 80 nM) [%] | viability inhibition ([2]; genotype: control, 400 nM) [%] | viability inhibition ([2]; genotype: control, 2000 nM) [%] | viability inhibition ([2]; genotype: control, 10000 nM) [%] |
| --- | --- | --- | --- | --- | --- | --- | --- | --- | --- | --- | --- | --- |
| S=c1nc[nH]c2nc[nH]c12 [Mercaptopurine] | 6.61 | 2.74 | -23.8 | -26.8 | -16.8 | -13.3 | 63 | -20.2 | -15.2 | -11.9 | 24.6 | 90.5 |
| O=C(O)C[C@H](O)C[C@H](O)/C=C/c1c(C2CC2)nc2ccccc2c1-c1ccc(F)cc1 [Pitavastatin calcium] | > 10 | 3.1 | -24.4 | -25.7 | -30.7 | -23.8 | 31 | 11 | -0.547 | -0.73 | 5.9 | 75.5 |
| Nc1ncnc2c1ncn2[C@@H]1O[C@H](COP(=O)(O)O)[C@@H](O)[C@H]1O [Adenosine 5'-monophosphate monohydrate] | > 10 | > 10 | -22.7 | -25.1 | -20.2 | -18.3 | -15.5 | 14.8 | 5.2 | 12.1 | 10.3 | 11.9 |
| COc1ccccc1OCC(O)CN1CCN(CC(=O)Nc2c(C)cccc2C)CC1 (stereo unspecified) [Ranolazine dihydrochloride] | > 10 | > 10 | -7.57 | -13.7 | -7.85 | -21.5 | -19 | -2.04 | 2.97 | -7.95 | -0.947 | 15 |
| COC1CCC(N2C(=O)CNc3ncc(-c4ccc(C(C)(C)O)nc4)nc32)CC1 (stereo unspecified) [CC223] | > 10 | > 10 | -8.46 | -17.5 | -1.64 | 13.1 | 22.1 | 11.3 | -6.69 | -3.2 | -6.07 | 35.3 |
| O=C(O)[C@@]1(CCCCCCOc2ccc(Cl)cc2)CO1 [(R)-Etomoxir sodium salt] | > 10 | > 10 | -11.4 | -21.5 | -17.4 | -13.9 | 37.6 | 12.3 | 19.7 | 14.6 | 15.3 | 26.1 |
| Cc1nc(Nc2ccc(F)cc2)nc(N2CCc3ccccc3C2C)c1C (stereo unspecified) [Revaprazan hydrochloride] | > 10 | > 10 | -4.67 | -1.6 | -2.29 | -13.6 | -33.6 | 20.9 | 17.7 | 11 | 7.17 | -10.8 |
| NN=C(N)N [Aminoguanidine hydrochloride] | > 10 | > 10 | -22 | -27.7 | -23.9 | -10.8 | -13.7 | -13.6 | -11.1 | -12.3 | -13.1 | -5.39 |
| CC(C)(C)c1cc(O)ccc1O [TBHQ] | > 10 | > 10 | -1.6 | -25.5 | -23.4 | -13.4 | 41.7 | 16.6 | 25.3 | 20.9 | 17.7 | 17 |
| O=C(O)c1nn(Cc2ccc(Cl)cc2Cl)c2ccccc12 [Lonidamine] | > 10 | > 10 | -2.77 | -15.4 | -12.8 | -13.1 | 17.1 | 4.32 | -14 | -10.1 | 0.337 | 23.5 |
| O=c1[nH]cc(F)c(=O)[nH]1 [Fluorouracil] | 6.47 | 3.81 | -23.1 | -26 | -27.2 | 1.88 | 53.9 | -8.89 | -1.82 | 8.13 | 22.2 | 83.9 |
| Cc1ccc(-c2cn3c4c(sc3n2)CCCC4)cc1 [Pifithrin-β hydrobromide] | > 10 | > 10 | -6.36 | -17.5 | -18.2 | -13.4 | 33 | -6.38 | -10.8 | -7.66 | 2.45 | -13.6 |
| O=C1CC(c2c[nH]c3ccc(F)cc23)C(=O)N1 (stereo unspecified) | > 10 | > 10 | 7.19 | 3.94 | 6.53 | 3.06 | 34 | 15.5 | -12.9 | -15.6 | -1.97 | 11.6 |
| Nc1cc(C(F)(F)F)c(-c2nc(N3CCOCC3)nc(N3CCOCC3)n2)cn1 [PI3K-IN-2] | 0.468 | 0.7 | 23.9 | 23 | 49.3 | 88.7 | 90.2 | -12.8 | 0.462 | 27.1 | 73.3 | 83.3 |
| CCc1ccc(/C=C2/SC(=S)NC2=O)cc1 | > 10 | > 10 | -4.9 | -10 | -9.11 | -3.79 | 1.27 | 7.22 | 4.14 | 13 | 9.23 | 12.7 |
| COc1ccc(-c2ccccc2)cc1NS(=O)(=O)c1cc(Cl)cc(Cl)c1O | > 10 | > 10 | 4.57 | -1.5 | -3.79 | -1.98 | 8.72 | -1.23 | 6.1 | 4.53 | 6.77 | 13.4 |
| CC(C)(C)c1ccc(S(=O)(=O)NCc2ccc(C(=O)Nc3cccnc3)cc2)cc1 [STF31] | > 10 | 1.33 | 0.724 | -19.9 | -8.95 | -5.53 | 6.98 | 18.1 | 6.81 | 42.8 | 43.4 | 74.1 |
| O=C(Oc1cc(S(=O)(=O)c2ccccc2)ccc1[N+](=O)[O-])c1ccc(Cl)cc1 | > 10 | > 10 | 13.8 | 11.7 | 15.7 | 20 | -32.5 | -2.81 | -4.51 | -7.2 | -8.31 | 16.7 |
| CC1=C(/C=C/C(C)=C/C=C/C(C)=C/C(=O)O)C(C)(C)CCC1 [Tretinoin] | > 10 | > 10 | -24.6 | -24.4 | -23.5 | -20.8 | -24.5 | -4.55 | -1.65 | -12.1 | -9.98 | -3.87 |
| Cc1[nH]nc(C(F)(F)F)c1Cc1sc2c(c1C(=O)N1C[C@](C)(O)CO1)c(=O)n(C)c(=O)n2C(C)C [AZD3965] | 0.576 | 0.338 | -7.19 | 25.1 | 22.9 | 31.7 | 47.6 | 0.727 | 24.8 | 21.6 | 40.3 | 45.9 |
| N[C@@H](CSCCB(O)O)C(=O)O [BEC HCl] | 8.12 | > 10 | 7.68 | -6.82 | -3.32 | 5.74 | 56.8 | -17.3 | -19 | -3.82 | -14 | -7.11 |
| CCN1C(=O)CNc2ncc(-c3ccc(-c4ncn[nH]4)nc3C)nc21 [CC115] | 2.13 | 4.96 | 5.59 | -19.9 | -8.79 | 27.2 | 81.2 | -13.9 | -10.3 | -8.79 | 7.12 | 74.9 |
| CC[C@H](C)C(=O)O[C@H]1CCC=C2C=C[C@H](C)[C@H](CC[C@@H]3C[C@@H](O)CC(=O)O3)[C@H]21 [Mevastatin] | > 10 | > 10 | -20.4 | -7.46 | -17.3 | -17.5 | -22.4 | -7.08 | 9.09 | 5.14 | 1.68 | 23.8 |
